# According to paper PMC8344021, “Discovery of Small Molecule Bak Activator for Lung Cancer Therapy” (Theranostics, 2021):
# Assays:
# [1] = tested on: mitochondria isolated from A549 cells; experiment: Cyt c release from isolated mitochondria; assay type: biochemical, human; conditions: 1 μM, 30 min, 30 °C
# Protocol: Figure 3 Bak is required for BKA-073 induction of mitochondrial priming, Cyt c release and apoptotic cell death. (A) Levels of Bak and Bax were analyzed by Western blot in parental, Bak ^-/-, Bax ^-/- or Bax/Bak double-knockout (DKO) A549 cells. (B-C) Parental, Bak ^-/-, Bax ^-/- or DKO A549 cells were treated with BKA-073 (1μM) for 16h or 72h, followed by analysis of dynamic BH3 profiling (B) or apoptotic cell death (C), respectively. Data represent the mean ± SD, n = 3 per group. ***P < 0.001, by 2-tailed t test. (D) Parental, Bak ^-/-, Bax ^-/- or DKO A549 cells were treated with BKA-073 (1μM) for 24 h. Mitochondrial and cytosolic fractions were isolated. Levels of Cyt c in these two fractions were analyzed by western blot. (E) Mitochondria were isolated from parental, Bak ^-/-, Bax ^-/- or DKO A549 cells. The isolated mitochondria were then treated with BKA-073 (1μM) in mitochondrial buffer for 30 min at 30 °C. After centrifugation, Cyt c in supernatant fraction (i.e. Cyt c release) and Cyt c in mitochondrial pellet were analyzed by western blot.
# To further test whether Bak is required for BKA-073 induction of Cyt c release, A549 parental, Bak^-/-, Bax^-/- and DKO cells were treated with BKA-073 (1 μM) for 24h, followed by analysis of Cyt c release from mitochondria. […] After centrifugation at 13000 g for 5 min, Cyt c in the supernatant (i.e., Cyt c release) was analyzed by Western blot.
# [2] = tested on: NSCLC and SCLC cell lines; experiment: Apoptotic cell death in panel of NSCLC and SCLC cell lines; assay type: cell-based, human; conditions: 1μM
# Protocol: Figure 1 Discovery of small molecule BKA-073 as a lead compound that targets BH3 domain of Bak and induces mitochondrial priming and apoptosis in lung cancer cells. (A) Schematic illustration of screening strategies used to identify the lead Bak agonist BKA-073 and its chemical structure. (B) Structural modeling of BKA-073 in the BH3 domain binding pocket of Bak protein. (C) Expression levels of Bak were analyzed by Western blot in NSCLC and SCLC cell lines. (D-E) A panel of NSCLC and SCLC cell lines were treated with BKA-073 (1μM) for 16h or 72h, followed by analysis of dynamic BH3 profiling (D) or apoptotic cell death (E), respectively. Data represent the mean ± SD, n = 3 per group. **P < 0.01, ***P < 0.001, by 2-tailed t test. TEXT PRINTED IN THE PICTURE: (A) BKA-073: MW: 361.87 […]
# Supplemental Materials and Methods
# Small molecule NSC14073 (BKA-073) was obtained from the Drug Synthesis and Chemistry Branch, Developmental Therapeutic Program, Division of Cancer Treatment and Diagnosis, National Cancer Institute (NCI, Bethesda, MD) (http://dtp.nci.nih.gov/RequestCompounds).
# Venetoclax (ABT-199, 205807) was purchased from MedKoo Biosciences (Morrisville, NC).
# Antibodies including PARP (sc-8007), Bax (sc-7480), Mcl-1 (sc-12756), cytochrome c (sc-13156) and actin (sc-47778) were purchased from Santa Cruz (Santa Cruz, CA). Bcl2 antibody (05-826) was obtained from Calbiochem (Darmstadt, Germany). Bcl-XL (ab32370), Bak (ab32371) and Bax (ab104156) antibodies were purchased from Abcam (Cambridge, MA). […]
# Cells were seeded at a density of 5 × 103 per well in 96-well plates and allowed to grow overnight. After treatment with BKA-073, the surviving cell fraction was determined using the sulforhodamine B (SRB) assay as described. Optical density (OD) was measured at 510nm in a microplate reader (Synergy H1, BioTek®, Winooski, VT). […]
# Apoptotic cells were detected using Annexin-V Apoptosis Detection Kit (556547, BD Biosciences, San Jose, CA) according to the manufacturer’s instructions. […]
smiles,measurement,setting,value
COc1ccc2nc3ccccc3c(NCCNCC(C)O)c2c1 (centres unmarked) [BKA-073],Cyt c release from isolated mitochondria,[1]; mitochondria from A549 Bax-/- cells,induced Cyt c release
same,Cyt c release from isolated mitochondria,[1]; mitochondria from A549 parental cells,induced Cyt c release
same,induction of apoptosis,[2]; 72h,potently induced
same,"sensitivity (mitochondrial priming and apoptosis), lines with relatively higher Bak","[2]; A549, H157, H1975, DMS53, DMS114, H209, H526",more sensitive
same,"sensitivity (mitochondrial priming and apoptosis), lines with relatively lower Bak","[2]; Calu-1, H69, H128, H146",less sensitive
